We go through eight molecules from publication PMC12598851, “Exploiting Avidity Effects for the Discovery of Low Affinity Protein-Binding Fragments” (Journal of Medicinal Chemistry, 2025).

Where “and” joins values, the source holds several entries; their conditions need not be identical. Identical values can stand only once. Entries after “also recorded” stand apart in the source; their conditions may differ. Like-named read-outs stand apart in the source and are kept apart here. Bounds are passed on as bounds.

The target of data set [1] is T1, GST-Rpn13 PRU fusion protein (UniProt P08515+Q16186).
T1 construct: the human Rpn13 PRU (pleckstrin-like receptor for ubiquitin) domain is linked to the C-terminus of GST; His6 (C); made in house; host or cells: E. coli BL21 (DE3) codon plus RP
T1 sequence (P08515+Q16186 fused): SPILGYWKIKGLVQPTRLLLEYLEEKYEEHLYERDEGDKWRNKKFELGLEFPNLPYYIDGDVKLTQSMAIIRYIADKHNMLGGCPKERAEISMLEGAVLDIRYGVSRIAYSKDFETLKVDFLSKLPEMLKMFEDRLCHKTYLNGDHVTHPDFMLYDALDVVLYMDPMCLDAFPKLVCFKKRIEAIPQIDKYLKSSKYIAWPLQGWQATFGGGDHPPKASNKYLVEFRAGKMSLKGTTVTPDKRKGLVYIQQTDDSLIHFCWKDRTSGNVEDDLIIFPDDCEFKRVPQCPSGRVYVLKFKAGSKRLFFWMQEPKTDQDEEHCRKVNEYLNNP
The data set can be described thus: Bead-displayed fragment screen against GST-Rpn13 PRU fusion protein. Format: binding, human. Conditions: GST-Rpn13 PRU 500 nM, A647 anti-FLAG antibody staining. As to the method:
The beads (one compound per well) were then incubated with GST-Rpn13 PRU fusion protein (500 nM) and, after washing, the amount of protein retained on the beads was measured after staining with Alexafluor-647 (A647)-labeled anti-FLAG antibody using a plate reader (Figure a). […] Next a competition experiment was performed in which the GST-Rpn13 PRU fusion protein was preincubated with excess glutathione (1 mM) to determine if the fragments, to some extent, engage the peptide-binding site of GST. […] We speculate that A8 and A88 probably bind to both GST and Rpn13, explaining the high signal in the original screen (Figure b). Finally, all five hit-displaying beads were incubated with only Alexa Fluor 647–labeled anti-FLAG antibody to confirm that the hits are not antibody binders (Figure S11).
General notes: • At each step, contents were mixed by pipetting up and down 3–5 times. • All steps following the addition of Alexa Fluor 647 anti-FLAG Tag Antibody were conducted in the dark. • Alexa Fluor 647 anti-FLAG Tag Antibody was purchased from commercial sources; (BioLengend cat #637316). […]
Each sample was transferred to a black 384-well plate in triplicate (3 × 20 μL per well). […] Fluorescence intensity was measured using a TECAN plate reader. Background fluorescence (from blank wells) was subtracted before further data analysis.

In data set [2] the target is T2, Rpn2-binding surface of Rpn13 (GST-Rpn13 PRU) (Homo sapiens, UniProt Q16186).
T2 construct: the human Rpn13 PRU (pleckstrin-like receptor for ubiquitin) domain is linked to the C-terminus of GST; His6 (C); made in house; host or cells: E. coli BL21 (DE3) codon plus RP
T2 sequence (Q16186 18-131 limits assumed): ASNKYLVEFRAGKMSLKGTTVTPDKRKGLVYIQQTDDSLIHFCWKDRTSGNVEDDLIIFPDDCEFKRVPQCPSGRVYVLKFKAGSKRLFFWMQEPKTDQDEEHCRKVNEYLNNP
The data set can be described thus: Competition assay with Rpn2 peptide for GST-Rpn13 PRU fusion protein. The conditions noted are these: protein preincubated with Rpn2 peptide 100 μM. The procedure: As mentioned above, the Rpn13 PRU domain binds to the proteasome via association with a C-terminal peptide tail from Rpn2. […] The amount of protein retained on the resin was then evaluated using the same protocol described above.
This assay was conducted following the exact same procedure described above using two samples: GST-Rpn13 PRU (100 nM) alone, and GST-Rpn13 PRU (100 nM) that had been pretreated with Rpn2 peptide (100 μM) for 1 h at 4 °C. Each sample was added to separate wells of a microtiter plate.

The next data set concerns the target T3, Rpn13 PRU (Homo sapiens, UniProt Q16186).
T3 construct: FLAG (N); His10 (C); made in house; host or cells: E. coli BL21 (DE3) codon plus RP
The data set can be described thus: SPR, soluble compound binding to biotinylated Rpn13 PRU captured on SA chip. As to the method:
4000–5000 Ru of Biotinylated Rpn13-PRU (50 μg/mL in running buffer (20 mM phosphate buffer with 2.7 mM KCl, 137 mM NaCl, 0.05% Surfactant P20, 1 mM DTT and 1 mM EDTA)) was captured on a SA sensor chip (Cytiva). Testing compounds were evaluated using the multiple-cycle kinetic/affinity method in running buffer with indicated association and dissociation time, and a flow rate of 40 μL/min. Data was analyzed with the BIAcore Insight Evaluation Software and the binding affinities were obtained by fitting the sensor grams to the 1:1 binding kinetics, steady-state affinity models or steady-state affinity model with constant R max.

A further data set addresses T4, SA-647 (Streptomyces avidinii, UniProt P22629).
T4 construct: purchased ThermoFisher S3235
The data set can be described thus: Dose-dependent binding of SA-647 to bead-displayed ligands by FACS (MFI). The conditions noted are these: SA-647 0.1 to 1000 nM. As to the method:
We next asked if the bead binding assay could distinguish complexes with different affinities for SA. 10 μm TentaGel beads displaying compound 2, compound 3, the oxazole analogue of compound 2 (Figure S4), or the SA-binding macrocycle 1 shown in Figure a were exposed to different concentrations of SA-647 ranging from 0.1 to 1000 nM. After washing, the intensity of fluorescence retained on the beads was measured using a flow cytometer, and the results were plotted as the mean fluorescence intensity (MFI) on the beads vs the protein concentration. […] Macrocycle 1, which binds SA with a K D of about 600 nM in solution (more than 1000 times more tightly than compound 2), binds SA-647 on resin at far lower concentrations than does compound 2.
In general terms: Flow cytometry measures light scatter and fluorescence of single cells or particles in a stream.

In data set [3] the target is T5, tetrameric streptavidin (SA-647) (Streptomyces avidinii, UniProt P22629).
T5 construct: purchased ThermoFisher S3235
T5 sequence (P22629 37-163 limits assumed): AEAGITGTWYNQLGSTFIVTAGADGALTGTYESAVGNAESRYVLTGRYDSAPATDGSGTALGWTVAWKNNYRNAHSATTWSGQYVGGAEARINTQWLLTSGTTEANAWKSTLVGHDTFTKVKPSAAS
The data set can be described thus: Bead pull-down: SA-647 retained by compound-displaying TentaGel beads, plate reader. It is filed as binding. Conditions: SA-647 500 nM. An excerpt:
Compounds 2 and 3 were then constructed on 10 μm TentaGel beads via straightforward solid-phase synthesis, along with acetylated beads, which as a “blank” (Figure c). TentaGel beads consist of an amino-polystyrene core onto which is grafted a thick layer of amine-terminated PEG chains. An additional mini-PEG spacer was incorporated prior to coupling the compounds to further improve spatial accessibility and aqueous display of the compounds (see Experimental Section for detailed synthesis). The beads were incubated with AlexaFluor 647-conjugated SA (SA-647) in phosphate-buffered saline supplemented with 0.05% Tween 20 (PBST) for 1 h at room temperature in the dark. Following incubation, the beads were washed thoroughly (see Experimental Section for a detailed protocol), then resuspended in PBST. The amount of fluorescent SA retained by the resin was analyzed using a Tecan multiwell plate reader equipped with appropriate excitation and emission filters (excitation at 650 nm, emission at 665 nm).
(§1) General notes: • At each step, contents were mixed by pipetting up and down 3–5 times. • All steps following the addition of SA-647 were conducted in the dark. • SA-647 and mSA-647 were purchased from commercial sources; (SA-647: ThermoFisher cat#S3235, mSA-647: Millipore SAE178).
A 96-well Multiscreen hydrophilic assay plate (MilliporeSigma, MSBVN12) was activated by treating each well with 150 μL of 70% (v/v) ethanol in water. The solvent was removed under vacuum, and the wells were washed with PBST (3 × 150 μL). Fresh PBST (150 μL) was then added to each well.
The plate was drained and washed again with PBST (3 × 150 μL), followed by the addition of 150 μL PBST per well. Plates were shaken overnight at ambient temperature on an orbital plate shaker.
The next day, wells were drained and incubated with 150 μL of a 1:1 (v/v) solution of PBST:PBS blocking buffer (Thermo Scientific, 37538) for 1 h at room temperature. After removal of the blocking buffer, 100 μL PBST was added to each well and mixed thoroughly. A 20 μL aliquot from each well was transferred to a black 384-well flat-bottom plate (Corning, 3820) for background (blank) measurements.
The remaining PBST was removed, and the beads were incubated with SA-647 (500 nM in 1:1 PBST/blocking buffer, 150 μL per well) for 1 h at room temperature. After incubation, wells were washed with PBST while shaking (3 × 20 min). A final 150 μL PBST wash was performed and drained. Fresh PBST (80 μL) was added to each well, and the contents were transferred to labeled PCR tubes. Samples were briefly vortexed and mixed by pipetting.
Each sample was transferred to a black 384-well plate in triplicate (3 × 20 μL per well). The plate was sealed with a foil sticker and centrifuged at 250g for 1 min. Fluorescence intensity was measured using a TECAN plate reader. Background fluorescence (from blank wells) was subtracted prior to further data analysis.

Another data set addresses T6, Streptavidin (SA) (Streptomyces avidinii, UniProt P22629).
T6 construct: purchased
The data set can be described thus: SPR, soluble compound binding to immobilized streptavidin. As to the method: The SPR binding affinity testing was conducted using the BIAcore 1K system (Cytiva) with BIAcore Insight Control Software. Streptavidin (50 μg/mL in 10 mM pH 5.0 NaOAc) was immobilized on a CM5 sensor chip (Cytiva) via amide coupling, using HBS-EP+ (10 mM HEPES, 150 mM NaCl, 3 mM EDTA, and 0.05% v/v Surfactant P20) as the immobilization buffer. Approximately 1000 RU of immobilization was achieved. Testing compounds were evaluated using the multiple-cycle kinetic/affinity method in PBS-P+ running buffer (20 mM phosphate buffer, 2.7 mM KCl, 137 mM NaCl, and 0.05% Surfactant P20), with a 200 s association time, 200 s dissociation time, and a flow rate of 45 μL/min. Binding affinities for the testing compounds were determined by fitting the sensor grams to both the 1:1 binding kinetics and steady-state affinity models provided in the BIAcore Insight Evaluation Software.

The test system of data set [4] is monomeric streptavidin (mSA-647). The data set can be described thus: Bead pull-down with monomeric streptavidin. Conditions: mSA-647 500 nM, 1 h, PBST, room temperature. It is filed as binding. As to the method: To investigate this, compound 2-displaying, compound 3-displaying, or blank (acetylated) beads were incubated with tetrameric SA-647 or iFluor647-conjugated monomeric streptavidin (mSA-647). Biotin-displaying beads (Figure S3) were also included in this experiment as a high-affinity comparator. […] No binding of either protein to compound 3-displaying beads was observed.
3 Stable binding of tetrameric SA to beads displaying compound 2 is highly dependent on avidity. […] Each compound was represented by 1 million 10 μm TentaGel beads, with 250,000 beads used per technical replicate. (b) Effect of ligand functionalization density on compound binding. Beads were functionalized with compound 2, compound 3, or biotin at varying surface densities (100% to 5%) and incubated with SA-647 (500 nM) for 1 h in PBST at room temperature as previously, before recording the fluorescence intensity.
as §1

In data set [5] the target is T5, tetrameric streptavidin (SA-647). The data set can be described thus: Bead pull-down: SA-647 retained by compound-displaying TentaGel beads, plate reader. Format: binding. Conditions: SA-647 (100 nM), plate reader.
Where [6] appears, read: soluble mini-PEG attached compound, immobilized SA, read-out: KD (SPR).

T3 sequence (Q16186 18-131 limits assumed): as the sequence (Q16186 18-131 limits assumed) above
T6 sequence (P22629 25-183, species assumed): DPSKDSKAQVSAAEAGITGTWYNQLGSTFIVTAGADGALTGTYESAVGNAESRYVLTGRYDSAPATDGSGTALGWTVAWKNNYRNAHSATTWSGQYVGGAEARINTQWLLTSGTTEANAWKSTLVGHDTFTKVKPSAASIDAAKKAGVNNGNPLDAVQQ
T4 sequence (P22629 37-163 limits assumed): as the sequence (P22629 37-163 limits assumed) above

Take `NC(=O)CNC(=O)COCCOCCNC(=O)CNC(=O)c1ccc2nc(-c3ccncc3)[nH]c2c1` [A63]: the “fluorescence intensity in GST-Rpn13 PRU screen” value in data set [1] is given as “above-background fluorescence”. In data set [2], the “effect of soluble Rpn2 peptide competitor on binding of GST-Rpn13 PRU” value is reported as “strongly suppressed binding”. Moreover, the “KD (SPR)” value at Rpn13 PRU (soluble compound, biotinylated Rpn13 PRU immobilized on SA chip) is reported as “A similar result”. In addition, the Kd (in general, the concentration at which binding is half-saturated) on Rpn13 PRU (supplementary CSV, solution dissociation constants, read-out: KD for Rpn13 PRU) was above 2 mM.

For the molecule `NC(=O)CNC(=O)COCCOCCNC(=O)CNC(=O)c1cnc2[nH]ccc2c1` [A85], the “fluorescence intensity in GST-Rpn13 PRU screen” value in data set [1] is on record as “above-background fluorescence”. Moreover, the “effect of soluble Rpn2 peptide competitor on binding of GST-Rpn13 PRU” value in data set [2] is given as “strongly suppressed binding”. Further, the Kd on Rpn13 PRU (soluble compound, biotinylated Rpn13 PRU immobilized on SA chip, read-out: KD (SPR)) is above 2 mM.

In the case of `CC(=O)N(Cc1ccccc1)Cc1nc(C(=O)N(C)CC(=O)NCCOCCOCC(=O)NCC(N)=O)cs1` [Compound 3], on SA-647, the “dose-dependent binding of SA-647 (MFI by flow cytometer)” value is “not”. For the same molecule, the “Fluorescence intensity, Average” value in data set [3] (12 replicates, after background subtraction, Z' calculation) is reported as 177. The “binding of SA-647 to bead-displayed compound (fluorescence)” value in data set [3] (1 h, PBST, room temperature, after washing) is “failed to retain more labeled SA than the acetylated “blank” beads; also recorded: No binding”. Besides, the “Fluorescence intensity, individual replicate” value in data set [3] (replicates 1-12, after background subtraction, Z' calculation) is 76 and 119 and 260 and 226 and 50 and 156 and 122 and 81 and 136 and 180 and 145 and 568. Moreover, the “binding to SA by SPR (in words)” value at Streptavidin (SA) (soluble compound, immobilized SA) is listed as “no detectable binding”. Also, in data set [4], the “binding of mSA-647 to bead-displayed ligand” value is reported as “No binding”.

For `CN(CC(=O)NCCOCCOCC(=O)NCC(N)=O)C(=O)c1csc(CN(Cc2cccnc2)C(=O)C2CCC(=O)C2)n1` (centres unmarked) [Compound 4], in data set [5], the “SA-647 retained by bead-displayed grown compound relative to parent compound 2” value is “retained the most SA-647”. On Streptavidin (SA) (SPR, immobilized SA), the “improvement of KD over the parent compound 2” value is on record as 7.8 fold. For the same molecule, the Kd on Streptavidin (SA) (setting [6]) worked out at 90 µM.

For `CN(CC(=O)NCCOCCOCC(=O)NCC(N)=O)C(=O)c1csc(CN(Cc2cccnc2)C(=O)c2ccc(F)c(C#N)c2)n1` [Compound 5], the Kd on Streptavidin (SA) (supplementary CSV, solution dissociation constants, read-out: KD for SA) was determined as 160 µM.

`CN(CC(=O)NCCOCCOCC(=O)NCC(N)=O)C(=O)c1csc(CN(Cc2cccnc2)C(=O)c2ccc(F)c(F)c2)n1` [Compound 6]: the “SA-647 retained by bead-displayed grown compound relative to parent compound 2” value in data set [5] is “captured less SA-647 than bead-displayed 4 but more than bead-displayed 2”. The Kd at Streptavidin (SA) (setting [6]) was found to be 330 µM.

In the case of `CN(CC(=O)NCCOCCOCC(=O)NCC(N)=O)C(=O)c1csc(CN(Cc2cccnc2)C(=O)c2ccc3[nH]ccc3c2)n1` [Compound 7], the “SA-647 retained by bead-displayed grown compound relative to parent compound 2” value in data set [5] is “retained less SA-647 than compound 2”. Besides, at Streptavidin (SA) (setting [6]), the Kd stood at 780 µM.

In the case of `O=C(O)CCCC[C@@H]1SC[C@@H]2NC(=O)N[C@@H]21` [biotin, reference compound], in data set [3] (site functionalization 100% to 5%), the “dependence of SA-647 retention on ligand density” value is “insensitive to ligand density”. Further, the “binding of mSA-647 to bead-displayed ligand” value in data set [4] was “readily observable”.
